US5599806A, “Hydrazino and hydroxyamino-14-β-hydroxyandrostane derivatives active on the cardiovascular system processes for their preparation and pharmaceutical compositions containing same” (Sigma-Tau Industrie Farmaceutiche Riunite S.p.A., priority 1994, dated 1997)
Like-named read-outs stand apart in the source and are kept apart here.

Experiments:
Na^+, K^+ -ATPase = conditions: reported in literature / other filings; cited from earlier work
[1] = reported in literature; cited from earlier work
[2] = target: Na^+, K^+ -ATPase receptor; assay: displacement of the specific ^3 H-ouabain binding from the Na^+, K^+ -ATPase receptor; conditions: ^3 H-ouabain displacement, purified Na^+
Excerpt: a) displacement of the specific ^3 H-ouabain binding from the Na^+, K^+ -ATPase receptor purified according to Jorghensen (Jorghensen P., BBA, 1974, 356, 36) and Erdmann (Erdmann E. et al., Arzneim. Forsh., 1984, 34, 1314);

[3] = target: T1, purified Na^+, K^+ -ATPase (Canis lupus familiaris, UniProt P50997); assay: inhibition of the activity of the purified Na^+, K^+ -ATPase (hydrolysis of ^32 P-ATP); assay type: biochemical
T1 construct: from tissue
Excerpt: To test the affinity for the receptor site of the Na^+, K^+ -ATPase and the inhibition of the activity of the enzyme, the following tests were used:
b) inhibition of the activity of the purified Na^+, K^+ -ATPase measured as % of hydrolysis of ^32 P-ATP in the presence and in the absence of the tested compound (Doucet A. et al., Am. J. Physiol., 1986, 251, F851)

[4] = system: spontaneous hypertensive rats (MHS); assay: effect of 5 week-treatment in spontaneous hypertensive rats (MHS) on the development of hypertension (SBP and HR, tail cuff method); assay type: in vivo, rat; conditions: 5 weeks, in Methocel 0.5% w/v; for SBP: controls 170 +/- 5.5; for HR: controls 378 +/- 12.0
Method: Systolic blood pressure (SBP) and hear rate (HR) were measured, by the tail cuff method, in young prehypertensive male rats (MHS or SHR) strains before the development of hypertension (4 weeks of age) for recording the basal values of SBP. Groups of 7 rats were formed and subdivided in control and treated groups.
The compound, suspended in Methocel 0.5% (w/v), was orally given daily for at least 5 weeks to the treated groups. The control group received only Methocel.
SBP and HR were measured weekly 6 and 24 hrs after treatment. After 5 weeks of treatment, when hypertension was fully developed in the control group (9 weeks of age), washout was started for at least one week, to verify whether the treatment maintained blood pressure low or reestablished the basal values.
(Takeda K. et al., Japan J. Pharmacol., 1979, 29, 171; Takeda K. et al. Japan J. Pharmacol., 1982, 32, 283; Richer C. et al. Eur. J. Pharmacol, 1978, 47,393).

SMILES	inhibition of Na^+, K^+ -ATPase (Na^+, K^+ -ATPase)	positive inotropic activity [1]	Binding ^3 H-Ouab. Displacement (-log IC50) [2]	IC50 ([3]; hydrolysis of ^32 P-ATP, purified Na^+, K^+ -ATPase, read-out: Inhibitory Activity (-log IC50) (converted)) [µM]	SBP ([4]; 1 mg/Kg/os daily)	HR ([4]; 1 mg/Kg/os daily)	SBP ([4]; 10 mg/Kg/os daily)	HR ([4]; 10 mg/Kg/os daily)	IC50 [3] [µM]
C[C@]12CC[C@H](O)C[C@H]1CC[C@@H]1[C@@H]2CC[C@]2(C)C(=NNC(=N)N)CC[C@]12O [17-guanidinoimino-5β-androstane-3β,14β-diol]	weak inhibitors of Na^+, K^+ -ATPase	–	–	–	–	–	–	–	–
C[C@]12CC[C@H](O)C[C@H]1CC[C@@H]1[C@@H]2CC[C@]2(C)[C@@H](C=NNC(=N)N)CC[C@]12O [17β-guanidinoiminomethyl-5β-androstane-3,β,14β-diol]	weak inhibitors of Na^+, K^+ -ATPase	weak positive inotropic agents	–	–	–	–	–	–	–
CN(C)CCONC[C@H]1CC[C@]2(O)[C@@H]3CC[C@@H]4C[C@@H](O)CC[C@]4(C)[C@H]3CC[C@]12C [Comp. I-am, 17β-(2-Dimethylaminoethoxyamino)methyl-5β-androstane-3β,14β-diol]	–	–	6.1	50.1	152 +/- 5.3 mm Hg	365 +/- 10.1 beats/min.	149 +/- 4.5 mm Hg	370 +/- 14.7 beats/min.	–
CN(C)CCONC[C@H]1CC[C@]2(O)[C@@H]3CC[C@@H]4C[C@@H](OCCCN)CC[C@]4(C)[C@H]3CC[C@]12C [Comp. I-bb, 3β-(3-Aminopropoxy)-17β-(2-dimethylaminoethoxyamino)methyl-5β-androstane-14β-ol]	–	–	6.3	–	153 +/- 6.2 mm Hg	367 +/- 14.3 beats/min.	150 +/- 4.2 mm Hg	375 +/- 12.1 beats/min.	31.6
